Results published in patent US9593362B2, “Fluorogenic glycosidase substrate and associated detection method” (ECOLE NORMALE SUPERIEURE DE LYON, priority 2012, dated 2017).

Columns and labels:
[1] = tested on: beta-galactosidase (EC 3.2.1.23; b-gal); experiment: Enzymatic assay: incubation of the probe with beta-galactosidase, microplate fluorescence; type: biochemical
Method: (§1) Probe I.1 was evaluated by incubation with the target enzyme beta-galactosidase (EC 3.2.1.23; <<b-gal>>; commercial) in in vitro medium and in multi-well micro-plates designed for fluorescence readers.
(§2) The main assays were conducted at 25° C. in solutions buffered at pH 7.4, physiological pH). Assays at 37° C. would have required protection of the wells against early evaporation e.g. by covering with a film which would have caused a strong reduction in the sensitivity of fluorescence measurement. A temperature of 25° C. was therefore preferred.
In the invention when implementing the enzymatic assays, once the minimum concentration allowing triggering of crystal nucleation is reached, there is depositing of a solid fluorophore in a well of a multi-well plate.
(§3) The following enzymatic assays of probe I.1 were performed in a 96-well microplate in a microplate spectrofluorimeter of Mithras LB 940 type by BERTHOLD TECHNOLOGIES. The excitation wavelength was set at 355 and the detection wavelength at 510 nm, conforming to the spectral properties of dichloro-HPQ.

[2] = Negative control of the enzymatic assay: probe in buffered aqueous medium without enzyme (background fluorescence / hydrolytic robustness); type: physicochemical; conditions: probe 25 μM, no b-gal, pH 7.4, 25° C., excitation 355 / detection 510 nm
Method: as §1, §2, §3

[3] = tested on: cells of C17.2 type which express the target enzyme b-gal constitutively; experiment: Incubation of the probe with C17.2 cells, microplate fluorescence; type: cell-based; conditions: probe 25 μM, culture plate without serum
Method: The experiment was conducted in a cell culture plate without serum, and the fluorescence signal was measured by the microplate spectrofluorimeter of Mithras LB 940 type by BERTHOLD TECHNOLOGIES.

[4] = tested on: cells expressing b-gal constitutively; experiment: Fluorescence microscopy of cells incubated with the probe; type: cell-based; conditions: probe 25 μM, 48 hours, serum-free medium
Method: FIG. 4 is a microscope image of the fluorescence of cells expressing b-gal constitutively and which were incubated by probe I.1 at 25 μM for 48 hours in a serum-free medium.

[5] = cited from earlier work

## O=C(Oc1ccc(Cl)cc1-c1nc2ccc(Cl)cc2c(=O)[nH]1)N1CCCCC1CO[C@@H]1O[C@H](CO)[C@H](O)[C@H](O)[C@H]1O (stereo partly shown) [probe I.1]
[1]; b-gal fixed at 20 μM, three concentrations of probe
  trend in fluorescence signal with increasing probe concentration: Strong growth of the signal
[1]; probe fixed at 25 μM, three concentrations of b-gal
  dependence of the fluorescence signal on the concentration of target enzyme: independency of the signal
[2]
  trend in the fluorescence signal in the absence of enzyme (negative control): total absence of a fluorescence signal
[3]
  capacity to cross the cell membrane: cross the cell membrane
  conversion by intracellular b-gal (fluorescence signal): converted by the enzyme
[4]
  fluorescent precipitate in cells (microscope image): highly fluorescent dichloro-HPQ is precipitated

## O=c1[nH]c(-c2cc(Cl)ccc2O)nc2ccc(Cl)cc12 [dichloro-HPQ, 6-chloro-2-(5-chloro-2-hydroxyphenyl)-4(3H)-Quinazolinone]
[5]
  solubility in aqueous/physiological media: fully insoluble
